In US20040038883A1, “Peptide inhibitors of Akt and uses thereof” (priority 2002, published 2004):
pIC50, pKi: −log10 of the molar value. No end group written: not given here.

Tests used:
Akt1 = target: T1, Akt1 (Homo sapiens, UniProt P31749); assay: in vitro Akt1 kinase assay with biotinylated Bad-derived peptide substrate; format: biochemical; settings: FIG. 3
T1 construct: made in house; host or cells: baculovirus / insect cells

SGK = assay: kinase selectivity assay, SGK; format: biochemical
Excerpt: Enzymes: Akt1 was expressed and purified using a baculoviral system. PKA was purchased from Panvera. CDC2, […] and PKC gamma were purchased from Calbiochem, and SGK and Src were purchased from Upstate Biotechnology (Charlottesvilee, Va.).
Substrates: All substrates were custom synthesized by Genemed Synthesis, Inc. (San Francisco, Calif.) except the Src substrate, which was purchased from Promega (cat#V6480). The substrates had the general structure of Biotin-Ahx-peptide. The Akt assay used […]. The PKA assay used kemptide LRRASLG. The CDC2 assay used PKTPKKAKKL. The SGK assay used RPRAATF. The PKC delta and gamma used neurogranin ERMRPRKRQGSVRRRV. Phosphotidylserine and dioleyl-sn-glycerol were purchased from Avanti Polar Lipids (Alabaster, Ala.). Strepavidin Flash Plates were purchased from Perkin Elmer Life Sciences (Boston, Mass.).
Turning to the kinase selectivity assays, all the enzymes other than Akt were tested in 25 mM Hepes buffer pH 7.4, 10 mM MgCl2, 0.1 mM Na3VO4, 0.5 mM DTT and 0.075 mg/ml Triton X-100. […] Reactions were transferred to Flash Plates, vortexed and incubated at room temperature for 10 min, then washed 3 times with phosphate buffered saline with 0.05% Tween 20 and counted on a TopCount Packard Instruments gamma counter (Packard Instruments, Boston, Mass.). IC50s were calculated using the Assay Explorer software, sigmoidal curve fit by MDL.

mouse Akt1 = mouse Akt1 (Mus musculus, UniProt P31750); settings: mouse Akt1, J. Biol. Chem. 275:36108-36115 (2000); cited from earlier work
Chain of mouse Akt1 (P31750 whole entry): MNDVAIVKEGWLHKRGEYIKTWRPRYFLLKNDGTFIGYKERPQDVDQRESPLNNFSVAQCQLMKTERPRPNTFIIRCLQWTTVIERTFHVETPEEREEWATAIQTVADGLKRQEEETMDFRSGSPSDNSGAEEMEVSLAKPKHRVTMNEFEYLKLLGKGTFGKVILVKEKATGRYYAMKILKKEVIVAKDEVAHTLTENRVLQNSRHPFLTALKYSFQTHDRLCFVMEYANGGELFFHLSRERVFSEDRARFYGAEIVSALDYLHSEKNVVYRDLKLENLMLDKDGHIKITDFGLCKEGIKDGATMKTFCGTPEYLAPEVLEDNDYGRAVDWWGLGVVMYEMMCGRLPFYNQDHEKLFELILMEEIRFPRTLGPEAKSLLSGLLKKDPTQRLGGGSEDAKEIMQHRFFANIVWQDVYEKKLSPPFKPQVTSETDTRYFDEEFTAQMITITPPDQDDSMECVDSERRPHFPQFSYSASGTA

Akt = assay: Ki
Experimental: Table printed on a drawing sheet, FIG.8
The patent's description of the figure: FIG. 8 represents the minimal length requirement for the peptide inhibitors. Different lengths of peptide inhibitor 2 were synthesized. For some of them, an acetyl group was added to the amino terminal end to increase the stability for cellular assays. These peptides were tested in the Akt assay described herein.
First copying reader's note: Ki values are for length variants of peptide inhibitor 2 tested in the Akt assay; the unit (μM) stands in the cells.
Where the first naming reader finds the target: description_of_the_figure: These peptides were tested in the Akt assay described herein.

[1] = tested on: Akt1-FL (full-length Akt1); assay: IC50 (Akt1-FL*)
Experimental: Table printed on a drawing sheet, FIG.3B
Head of the field: IC50 (Akt1-FL*)
Footnotes: *FL: FULL-LENGTH
The patent's description of the figure: FIG. 3: FIG. 3A illustrates Akt1 inhibition by the five Akt1 peptide inhibitors. FIG. 3B illustrates the IC50 of the five peptide inhibitors.
First copying reader's note: For peptide 5 the sheet prints a percent value at 128μM in place of an IC50.
Where the first naming reader finds the target: head: IC50 (Akt1-FL*)

T1 sequence (P31749 whole entry): as the sequence (P31750 whole entry) above, with N2S, S50A, A100T, R112K, T117E, T389K, N410G, D415H counted along it

Row | Compound | pKi (Akt) | pIC50 [1] | further results
1 | 5: peptide 2 with threonine at position 15 mutated to Asp (VELDPEFEPRARERDYAFGH; Variant of the wildtype Akt Sequence) [Peptide 5] | – | – | relative potency of Akt1 inhibition (in words) (Akt1): least potent inhibitor
2 | CC(C)C[C@H](NC(=O)[C@H](CCC(=O)O)NC(=O)[C@@H](N)C(C)C)C(=O)N[C@@H](CC(=O)O)C(=O)N1CCC[C@H]1C(=O)N[C@@H](CCC(=O)O)C(=O)N[C@@H](Cc1ccccc1)C(=O)N[C@@H](CCC(=O)O)C(=O)N1CCC[C@H]1C(=O)N[C@@H](CCCNC(=N)N)C(=O)N[C@@H](C)C(=O)N[C@@H](CCCNC(=N)N)C(=O)N[C@@H](CCC(=O)O)C(=O)N[C@@H](CCCNC(=N)N)C(=O)N[C@H](C(=O)N[C@@H](Cc1ccc(O)cc1)C(=O)N[C@@H](CO)C(=O)N[C@@H](Cc1ccccc1)C(=O)NCC(=O)N[C@@H](Cc1c[nH]cn1)C(=O)O)[C@@H](C)O [Peptide 1] | – | – | relative potency of Akt1 inhibition (in words) (Akt1): most potent inhibitor against Akt1; inhibition on SGK (in words) (SGK): inhibition was observed; pKi (SGK; highest concentration tested 50 μM, 10 μM ATP): 6.00
3 | ARKRERTYSFGHHA [AKTide-2T] | – | – | pKi (mouse Akt1): 4.92
4 | Ac-DPEFEPRARERTYAFGH | 6.59 | – | –
5 | Ac-ERTYAFGH | < 4.00 | – | –
6 | Ac-FEPRARERTYAFGH | 5.84 | – | –
7 | Ac-RARERTYAFGH | 4.80 | – | –
8 | FEPRARERTYAFGH | 5.71 | – | –
9 | VELDPEFEPRARER A Y A F GH [4:] | – | 6.68 | –
10 | VELDPEFEPRARER T Y A F GH [2:] | – | 6.55 | –
11 | VELDPEFEPRARER T Y D F GH [3:] | – | 4.97 | –
12 | VELDPEFEPRARER T Y S F GH [1:] | – | 6.31 | –
